# Results: patent publication US8202855B2, “Substituted beta-lactams” (Allergan, Inc, priority 2008, dated 2012)
# Tested on: lashes and adjacent hairs of patients having glaucoma
# Assay: Observation of lashes in glaucoma patients treated in one eye
# Type: in vivo
# Conditions: glaucoma patients treated in only one eye
# From the text: In the course of treating patients having glaucoma, treatment may only be appropriate in one eye. […] The lash appearance on the lids of the treated eyes would have appeared quite attractive if it represented a bilateral phenomenon. As a result of its asymmetric nature, the long lashes on one side could be construed as disturbing from a cosmetic standpoint. A systemic examination was preformed as a result of the asymmetric phenomenon. It soon became apparent that this altered appearance was not an isolated finding. […] Definite differences could be identified to varying degrees in the lashes and adjacent hairs of all patients who were taking the drug on a unilateral basis for longer than 6 months.
# The changes in the lashes were apparent on gross inspection in several patients once attention was focused on the issue. In those with light colored hair and lashes, the differences were only seen easily with the aid of the high magnification and lighting capabilities of the slit lamp biomicroscope. In the course of glaucoma follow-up examination, attention is generally immediately focused on the eye itself. As a result of the high power magnification needed only one eye is seen at a time and the eye is seen at a high enough power that the lashes are not in focus. […]
compound,measurement,value
CCNC(=O)CCC/C=C\C[C@@H]1[C@@H](/C=C/[C@@H](O)CCc2ccccc2)[C@H](O)C[C@@H]1O [bimatoprost],lash appearance in treated eye versus non-treated eye,"longer, thicker, and fuller in the treated eye than in the non-treated eye"
